Data reported in patent US7262197B2, “Phospholipase C inhibitors for use in treating inflammatory disorders” (Janssen Pharmaceutica, N.V, priority 2003, dated 2007).

These compounds were tested against T1, human PLC-β2 (Homo sapiens, UniProt Q00722) (assay: PLC assay using FlashPlates (immobilized [3H]PIP2 substrate, 96-well)). Conditions: hydrolysis of immobilized [3H]PIP2; purified recombinant human PLC-β2 or cytosolic human PLC-β2.
T1 construct: made in house; host or cells: Sf9 cells (Spodoptera frugiperda), recombinant baculovirus
Format: biochemical
From the text: The hydrolysis of phosphatidylinositol-4,5-bisphosphate (PIP2) by a specific phospholipase C-β2 (PLC-β2) produces two intracellular messengers, diacylglycerol (DAG) and inositol 1,4,5-trisphosphate (IP3), which mediate the activation of protein kinase C and intracellular Ca^2+ release. A conventional organic solvent extraction method is widely used for PLC assays to isolate IP3 from the substrate PIP2. The conventional PLC-β2 assay, however is terminated by addition of acidified organic solvents and subsequent extraction and phase separation. […] Accordingly, a preferred method to test the compounds of the present invention, was developed utilizing a 96-well plate assay for PLC-β2 using immobilized radiolabeled substrate to quantitatively measure the reduction in the substrate level without a need for organic solvent extraction. The automated PLC-β2 assay described herein provides a convenient method for quantitative measurement of phospholipase C activities in a high throughput fashion.
Ninety-six well Phospholipid FlashPlates were coated with 0.2 mL of 50 mM Tris/HCl (pH 7.4), 0.01% Ac-BSA and 50,000 cpm of ^[3H]PIP2 (phosphatidylinositol-4,5-bisphosphate) at 4° C. for 72 h. The wells were aspirated and washed twice with PBS. The reactions were conducted directly in the wells in PLC reaction buffer containing 50 mM Tris/HCl (pH 7.2), 2.75 mM EDTA (pH 7.3), 80 mM KCl, 10 mM LiCl, 0.04% DOC and 2 mM CaCl2 in the absence or presence of the purified recombinant human PLC-β2 (prepared as described hereafter) or cytosolic human PLC-β2 from […]. Reduction of radioactivity was monitored by a Packard TopCount instrument (Packard Instrument Company, Conn., USA).
Suspension cultures of Sf9 cells were maintained in a spinner flask at 27° C. and stirred at 90 rpm. The cells were grown in Grace's media supplemented with 10% (v/v) fetal bovine serum, 3.3 g/l yeastolate, 3.3 g/l lactalbumin hydrosylate, glutamine (6.4 mM final), 50 µg/ml gentamicin, and 50 μg/ml kanamycin. Suspension of Sf9 cells (1.0×10^6 cells/ml) were infected with 5 pfu/cell of recombinant baculovirus encoding PLC-β2 and incubated at 27° C. for 72 h. The cells were collected by centrifugation (500×g, 7 min, 4° C.) and disrupted by hypotonic lysis buffer containing 20 mM Tris/HCl, pH 7.4, 5 mM MgCl2, 2 mM EGTA, 200 βM PMSF, 200 βM benzamidine and 1 βM pepstatin A. The lysate was sonicated on ice and the nuclei and unbroken cells removed by centrifugation (500×g, 5 min, 4° C.). The supernatant was recovered and clarified by centrifugation (34,000 rpm, 60 min, 4° C.). The supernatant was used as a crude cytosolic fraction (Paterson, A., Boyer, J. L., Watts, V. J., Morris, A. J., Price, E. M., Harden, T. K. (1995) Concentration of enzyme-dependent activation of PLC β1 and PLC β2 by Gα11 and βγ subunits. Cellular Signalling 7, 709-720).
Crude cytosol prepared from Sf9 cells expressing PLC-β2 was purified initially by chromatography on a 10 ml column of Q-Sepharose FF, equilibrated in buffer A (25 mM HEPES, pH 7.2, 2 mM DTT, 2 mM EDTA, 2 mM EGTA, 200 μM PMSF, 200 μM benzamidine, 1 μM pepstatin A containing 10 mM NaCl). The column was washed with 20 ml of equilibration buffer and eluted with a 200-ml gradient of 110-410 mM NaCl in buffer A. The fractions containing PLC activity were pooled and diluted with buffer A. The diluted enzyme was applied to a 4 ml column of heparin-SepharoseCL-6B equilibrated in buffer A and the column washed with 70 ml of buffer A. The column was eluted with 80 ml of gradient of 0-1.0 M NaCl in buffer A, the column eluate collected in 3 ml fractions. […]

T1 sequence (Q00722 whole entry): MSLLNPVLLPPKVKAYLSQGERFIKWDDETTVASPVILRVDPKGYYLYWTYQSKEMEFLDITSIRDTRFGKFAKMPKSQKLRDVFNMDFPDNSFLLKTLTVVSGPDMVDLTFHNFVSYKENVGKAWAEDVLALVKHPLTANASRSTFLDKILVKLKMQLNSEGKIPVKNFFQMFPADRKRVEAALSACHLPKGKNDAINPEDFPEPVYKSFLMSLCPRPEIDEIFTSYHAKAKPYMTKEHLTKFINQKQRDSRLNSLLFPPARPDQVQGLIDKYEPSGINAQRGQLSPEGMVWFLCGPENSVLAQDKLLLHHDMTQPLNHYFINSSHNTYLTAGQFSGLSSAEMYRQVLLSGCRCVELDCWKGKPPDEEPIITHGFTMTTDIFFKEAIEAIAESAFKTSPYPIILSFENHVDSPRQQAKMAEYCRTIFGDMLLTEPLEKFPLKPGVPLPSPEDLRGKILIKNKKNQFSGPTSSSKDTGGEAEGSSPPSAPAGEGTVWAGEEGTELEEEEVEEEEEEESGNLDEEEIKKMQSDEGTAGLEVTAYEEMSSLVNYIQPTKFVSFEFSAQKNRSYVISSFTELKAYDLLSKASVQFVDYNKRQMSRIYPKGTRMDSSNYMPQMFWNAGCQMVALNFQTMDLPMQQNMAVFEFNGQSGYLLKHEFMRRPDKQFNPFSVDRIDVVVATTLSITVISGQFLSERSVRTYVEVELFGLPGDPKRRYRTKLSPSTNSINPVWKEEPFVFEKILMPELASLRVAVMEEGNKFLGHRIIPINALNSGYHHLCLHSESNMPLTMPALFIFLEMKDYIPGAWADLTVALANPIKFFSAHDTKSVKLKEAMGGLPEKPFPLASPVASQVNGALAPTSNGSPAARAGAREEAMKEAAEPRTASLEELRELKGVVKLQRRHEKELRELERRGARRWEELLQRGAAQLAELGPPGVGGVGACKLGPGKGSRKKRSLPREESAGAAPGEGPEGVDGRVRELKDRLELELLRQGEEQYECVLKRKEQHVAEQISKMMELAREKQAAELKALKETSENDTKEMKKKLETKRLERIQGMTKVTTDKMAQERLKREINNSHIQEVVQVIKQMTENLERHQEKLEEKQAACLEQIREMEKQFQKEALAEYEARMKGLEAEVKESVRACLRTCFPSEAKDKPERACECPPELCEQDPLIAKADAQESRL

| SMILES | IC50 [µM] |
| --- | --- |
| Cc1ccc(C(=O)Nc2cc(C(=O)N3CCNCC3)ccc2N2CCN(C(c3ccccc3)c3ccccc3)CC2)cc1 [Cpd 1, N-[2-[4-(diphenylmethyl)-1-piperazinyl]-5-(1-piperazinylcarbonyl)phenyl]-4-methyl-benzamide] | 12.6 |
| Cc1oc(-c2ccc(Cl)cc2)cc1C(=O)Nc1cc(C(=O)N2CCNCC2)ccc1N1CCN(C(c2ccccc2)c2ccccc2)CC1 [Cpd 2, 5-(4-chlorophenyl)-N-[2-[4-(diphenylmethyl)-1-piperazinyl]-5-(1-piperazinylcarbonyl)phenyl]-2-methyl-3-furancarboxamide] | 17.4 |
| O=C(Nc1cc(C(=O)N2CCNCC2)ccc1N1CCN(C(c2ccccc2)c2ccccc2)CC1)c1ccco1 [Cpd 3, N-[2-[4-(diphenylmethyl)-1-piperazinyl]-5-(1-piperazinylcarbonyl)phenyl]-2-furancarboxamide] | 21.6 |
| CCC(=O)Nc1cc(C(=O)N2CCNCC2)ccc1N1CCN(C(c2ccccc2)c2ccccc2)CC1 [Cpd 4, N-[2-[4-(diphenylmethyl)-1-piperazinyl]-5-(1-piperazinylcarbonyl)phenyl]-propanamide] | > 25 |
| Cc1ccc(S(=O)(=O)Nc2cc(C(=O)N3CCNCC3)ccc2N2CCN(C(c3ccccc3)c3ccccc3)CC2)cc1 [Cpd 5, N-[2-[4-(diphenylmethyl)-1-piperazinyl]-5-(1-piperazinylcarbonyl)phenyl]-4-methyl-benzenesulfonamide] | 10.8 |
| O=C(c1ccc(N2CCN(C(c3ccccc3)c3ccccc3)CC2)c(NS(=O)(=O)c2ccc(Cl)cc2)c1)N1CCNCC1 [Cpd 6, 4-chloro-N-[2-[4-(diphenylmethyl)-1-piperazinyl]-5-(1-piperazinylcarbonyl)phenyl]-benzenesulfonamide] | 8.7 |
| CCCCS(=O)(=O)Nc1cc(C(=O)N2CCNCC2)ccc1N1CCN(C(c2ccccc2)c2ccccc2)CC1 [Cpd 7, N-[2-[4-(diphenylmethyl)-1-piperazinyl]-5-(1-piperazinylcarbonyl)phenyl]-1-butanesulfonamide] | > 25 |
| CS(=O)(=O)Nc1cc(C(=O)N2CCNCC2)ccc1N1CCN(C(c2ccccc2)c2ccccc2)CC1 [Cpd 8, N-[2-[4-(diphenylmethyl)-1-piperazinyl]-5-(1-piperazinylcarbonyl)phenyl]-methanesulfonamide] | 9.8 |
| CS(=O)(=O)c1ccc(N2CCN(C(c3ccccc3)c3ccccc3)CC2)c(NC(=O)Nc2ccccc2)c1 [Cpd 9, N-[2-[4-(diphenylmethyl)-1-piperazinyl]-5-(methylsulfonyl)phenyl]-N′-phenyl-urea] | > 10 |
| O=C(Nc1ccccc1)Nc1cc(CO)ccc1N1CCN(C(c2ccc(F)cc2)c2ccc(F)cc2)CC1 [Cpd 10, N-[2-[4-[bis(4-fluorophenyl)methyl]-1-piperazinyl]-5-(hydroxymethyl)phenyl]-N′-phenyl-urea] | > 10 |
| COC(=O)c1ccc(N2CCN(C(c3ccc(F)cc3)c3ccc(F)cc3)CC2)c(NC(=O)Nc2ccccc2)c1 [Cpd 11, 4-[4-[bis(4-fluorophenyl)methyl]-1-piperazinyl]-3-[[(phenylamino)carbonyl]amino]-benzoic acid methyl ester] | > 10 |

Same assay, conditions: printed in brackets beside IC50 >10 μM; test concentration not stated

| SMILES | inhibition at up to 10 µM [%] |
| --- | --- |
| CS(=O)(=O)c1ccc(N2CCN(C(c3ccccc3)c3ccccc3)CC2)c(NC(=O)Nc2ccccc2)c1 [Cpd 9, N-[2-[4-(diphenylmethyl)-1-piperazinyl]-5-(methylsulfonyl)phenyl]-N′-phenyl-urea] | 60 |
| O=C(Nc1ccccc1)Nc1cc(CO)ccc1N1CCN(C(c2ccc(F)cc2)c2ccc(F)cc2)CC1 [Cpd 10, N-[2-[4-[bis(4-fluorophenyl)methyl]-1-piperazinyl]-5-(hydroxymethyl)phenyl]-N′-phenyl-urea] | 47 |
